This note sets out measurements from patent US8399495B2, “Talarazole metabolites” (Stiefel Laboratories, Inc., priority 2006, dated 2013).

The structures appear in SMILES notation.

Series [1] deals with vaginal keratinization induced by estrogenic treatment. Description: Inhibition of vaginal keratinization induced by estrogenic treatment in ovariectomized rats. Format: in vivo, rat. The conditions noted are these: for ED50-value for complete suppression (keratinization score=0): ovariectomized rats with estrogenic treatment, M4 oral during 3 days. The text has this:
Effects on Epithelial Differentiation in Rat Vagina: Inhibition of Vaginal Keratinization Induced by Estrogenic Treatment in Ovariectomized Rats by Oral Administration of Talarozole Metabolite M4
This animal model is based on the observation that retinoic acid (RA) suppresses the keratinization process in the stratified squamous epithelium of the vagina induced by estrogenic treatment in ovariectomized rats (Sietsema & DeLuca, 1982; Geiger & Weiser, 1989).

Series [2] in a line: Metabolite radioprofiling of plasma, urine and feces, rat. The conditions noted are these: rat (5 mg/kg) oral 14C-talarozole; for Urine % Dose as the component: urine 0-48 h. It is filed as in vivo. On the procedure: (§1) Male and female CD-1 mice (19-29 g, n=3/sex/timepoint for blood sampling, n=3/sex for mass balance), Sprague Dawley rats (0.205-0.237 kg, n=3/sex/timepoint for blood sampling, n=3/sex for mass balance) and beagle dogs (7-12 kg, n=3) were given a single oral dose of ^14C-labeled talarozole in 20% hydroxyl propyl B-cyclodextrin at 5 mg/kg. Healthy human male volunteers (76.6-107.9 kg, n=5) were dosed with a single oral dose of 4 mg ^14C-labeled rambazole in ethanol. Blood samples were collected at selected timepoints after dosing and plasma was prepared. Urine and feces were collected for 2, 7 and 8 days. For the human study, up to 288 hours post-dose and semen samples were obtained 2 and 4 hours post-dose. Radioactivity in various matrices were measured by liquid scintillation counting (LSC). Select plasma, urine and fecal samples were subjected to metabolite radioprofiling and characterization, and in the human study, semen samples. Metabolite radioprofiling was accomplished using HPLC with fraction collection followed by solid scintillation counting (Packard TopCount—see representative HPLC run data below). Radioactivity peaks were integrated and the percent distribution of individual metabolites in each sample was determined. Metabolite characterization and identification were accomplished by LC/MS (Finnigan MAT LCQ in positive or negative ESI mode) in conjunction with an appropriate radioactive monitor (RAM). For all species, plasma, urine and fecal samples were pooled across animals and analyzed. Plasma was analyzed at several time-points out to 24 hours. Urine was analyzed over one time-interval (0-24 hours for mouse, 0-48 hours for rat, 0-72 hours for dog, and for in the human study, 0-12, 12-24, 24-48, 0-48 hours. Feces was analyzed over 2-3 time intervals (0-24 and 24-48 hours for mouse and rat; 0-24, 24-48, and 48-72 hours for male dogs; and 24-48, 48-72, and 72-96 hours for female dogs). In the human study, feces were analyzed for 0-48, 48-96, 96-144, 144-192, 192-288, 0-144, 144-288 and 0-288 hours. PK parameters for ^14C-labeled talarozole radioactivity was determined from the mean (mouse and rat) or individual (dog and human) plasma concentration versus time data. PK parameter values were determined by non-compartmental methods using WinNonlin™. • HPLC data for separations described in Example 1: • LC system: Waters 2695 Separations Module • Analytic column: C18 column, 4.6×150 mm, 3 μm • Flow rate: 1.0 mL/min • Mobile phase A: 2% HCOOH in H2O (pH 3.2) • Mobile phase B: CH3CN • Gradient: […]

A further series deals with IP-10. Description: Suppression of IP-10 production by IFNγ-activated human epidermal keratinocytes. It is filed as cell-based. The text has this:
Talarozole Metabolites for Suppression of IP-10 Production by IFNγ-Activated Human Epidermal Keratinocytes
IP-10, a member of the CXC subfamily of chemokines, attracts T-lymphocytes and natural killer cells. […] In particular, epidermal keratinocytes of psoriatic lesions express elevated levels of IP-10. Suppression of IP-10 expression by activated keratinocytes may represent a novel target for therapeutic intervention of inflammatory skin disorders.

Series [3] is described as follows: Metabolite radioprofiling of plasma, urine and feces, mouse. It is filed as in vivo. To be noted: mouse (5 mg/kg) oral 14C-talarozole; for Urine % Dose as the component: urine 0-24 h. On the procedure:
as §1

Series [4] can be described thus: Metabolite radioprofiling of plasma, urine, feces and semen, human. The conditions noted are these: in vivo. As to the method: as §1
A short description of series [5]: Metabolite radioprofiling of plasma, urine and feces, dog. Format: in vivo. To be noted: dog (5 mg/kg) oral 14C-talarozole; for Urine % Dose as the component: urine 0-72 h. On the procedure:
as §1

Consider `CC1=C(/C=C/C(C)=C/C=C/C(C)=C/C(=O)O)C(C)(C)CCC1` [RA, retinoic acid], for which the “ED50-value for complete suppression (keratinization score=0)” value in series [1] stood at 5.1 mg/kg/day.
Turning to `CCC(CC)C(c1ccc(Nc2nc3ccc(OS(=O)(=O)O)cc3s2)cc1)n1cncn1` (stereo not shown) [Metabolite M16], in series [2] (female), the “Feces % Dose as the component” value was found to be 1.33 % Dose, the “Plasma 0-24 h AUC (% Sample)” value was 2.43%, the “Plasma 0-24 h AUC of the radioactive component” value was found to be 218.47 ng·h/g and the “Urine % Dose as the component” value is recorded as 0.31 % Dose. Besides, in series [2] (male), the “Feces % Dose as the component” value amounted to 1.42 % Dose, the “Plasma 0-24 h AUC (% Sample)” value is 2.94%, the “Plasma 0-24 h AUC of the radioactive component” value came to 207.48 ng·h/g and the “Urine % Dose as the component” value came to 0.16 % Dose.
Take `CCC(CC)[C@@H](c1ccc(Nc2nc3ccccc3s2)cc1)n1cncn1` [its enanantiomer]: the “IP-10 expression” value with IP-10 is reported as “down regulate dose-dependently”.
As for `CCC(CC)C(c1ccc(Nc2nc3ccc(O)cc3s2)cc1)n1cncn1` (stereo not shown) [Metabolite M4], the “IP-10 expression” value in the series with IP-10 was “down regulate dose-dependently”. Moreover, the “Feces % Dose as the component” value in series [3] (female) worked out at 15.16 % Dose; in series [3] (male), 10.56 % Dose; in series [2] (female) it was 7.76 % Dose; in series [2] (male), 4.95 % Dose; in series [5] (female), 17.01 % Dose; in series [5] (male), 19.88 % Dose. The “Plasma 0-24 h AUC (% Sample)” value in series [3] (female) was 7.44%; in series [3] (male), 4.43%; in series [2] (female), 3.68%; in series [2] (male), 7.01%; in series [5] (female), 34.33%; in series [5] (male) it was 18.37%. Also, the “Plasma 0-24 h AUC of the radioactive component” value in series [3] (female) amounted to 492.2 ng·h/g; in series [3] (male) it was 402.45 ng·h/g; in series [4] (human, po, 0.067 mg/kg), 58.74 ng·h/g; in series [2] (female), 331.07 ng·h/g; in series [2] (male) it was 493.84 ng·h/g; in series [5] (female), 6257.6 ng·h/g. For the same compound, the “Plasma 0-24 h AUC of the radioactive component” value in series [5] (male) amounted to 3132.4 ng·h/g. Further, the “Urine % Dose as the component” value in series [3] (female) amounted to 0.01 % Dose; in series [3] (male) it was 0.02 % Dose; in series [2] (female), 0.29 % Dose; in series [2] (male), 0.07 % Dose; in series [5] (female), 0.01 % Dose; in series [5] (male) it was 0.04 % Dose. For the same compound, the “Semen (radioactive component in semen samples)” value in series [4] is recorded as “minor radioactive components”. In series [4] (male, human, po, 0.067 mg/kg), the “Plasma 0-24 h AUC (% Sample), % of total plasma radioactivity” value was 27.8%. Besides, the “inhibition of vaginal keratinization” value in series [1] (oral administration during 3 days, ovariectomized rats) is “inhibited vaginal keratinization induced by estrogenic treatment in ovariectomized rats in a dose-dependent manner”. Also, in series [1], the “ED50-value for complete suppression (keratinization score=0)” value is given as 1.2 mg/kg/day.
As for `CCC(CC)C(c1ccc(Nc2nc3ccc(OC4OC(C(=O)O)C(O)C(O)C4O)cc3s2)cc1)n1cncn1` (stereo not shown) [Metabolite M9], the “Plasma 0-24 h AUC (% Sample)” value in series [3] (female) is listed as 18.27%; in series [3] (male) it was 21.31%; in series [2] (female), 12.06%; in series [2] (male), 4.43%. Further, the “Plasma 0-24 h AUC of the radioactive component” value was 1208.2 ng·h/g in series [3] (female), 1937.3 ng·h/g in series [3] (male), 1084.8 ng·h/g in series [2] (female) and 312.30 ng·h/g in series [2] (male). Besides, the “Feces % Dose as the component” value in series [5] (female) was determined as 3.09 % Dose; in series [5] (male) it was 4.31 % Dose. For the same compound, the “Urine % Dose as the component” value turned out to be 0.45 % Dose in series [5] (female) and 1.35 % Dose in series [5] (male).
